Experimental data as given in PubChem BioAssay AID624041 (The Scripps Research Institute Molecular Screening Center, 2012).
The source made the active and inactive calls. No rule for the calls is given here.

Columns and labels:
[1] = in vivo ABHD6 inhibition in mouse liver, late-stage follow-up, in vivo study for DAGLb inhibitor project, competitive gel-based ABPP, fluorescence (AID 624041); settings: in vivo dosing, anti-target, probe FP-Rh, stronger effect = higher value
[2] = biological target: Monoacylglycerol lipase ABHD6 (Mus musculus) (UniProt Q8R2Y0); test: as above; settings: in vivo dosing
Sequence of Monoacylglycerol lipase ABHD6 (Mus musculus) (Q8R2Y0 whole entry, looked up): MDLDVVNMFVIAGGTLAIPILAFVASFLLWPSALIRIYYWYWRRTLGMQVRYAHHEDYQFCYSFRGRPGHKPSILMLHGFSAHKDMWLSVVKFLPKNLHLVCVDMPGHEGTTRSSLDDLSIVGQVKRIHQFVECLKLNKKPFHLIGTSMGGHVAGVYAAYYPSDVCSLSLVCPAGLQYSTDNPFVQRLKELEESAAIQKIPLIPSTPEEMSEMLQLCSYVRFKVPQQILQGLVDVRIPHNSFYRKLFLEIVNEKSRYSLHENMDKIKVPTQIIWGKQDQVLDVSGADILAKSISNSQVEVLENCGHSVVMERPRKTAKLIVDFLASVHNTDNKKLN

SMILES: COc1ccc(-c2ccc(-c3cn(C(=O)N4CCCCC4c4ccccc4)nn3)cc2)cc1 (stereo not drawn)
- inhibition ([1]; 65 kDa SH, dose or concentration not given here): 70% (inactive)
- inhibition ([1]; 65 kDa SH, inhibition at 5 mg/kg): 5%
- inhibition ([1]; 72 kDa SH, dose or concentration not given here): 80% (inactive)
- inhibition ([1]; 72 kDa SH, inhibition at 5 mg/kg): 20%
- inhibition ([2]; probe FP-Rh, stronger effect = higher value, dose or concentration not given here): 95%
- inhibition ([2]; probe FP-Rh, inhibition at 5 mg/kg, stronger effect = higher value): 98%
- inhibition ([2]; probe HT-01, stronger effect = higher value, dose or concentration not given here): 90%
- inhibition ([2]; probe HT-01, inhibition at 5 mg/kg, stronger effect = higher value): 90%
